Measured values as given in US20060069084A1, “Methods of inhibiting kinases” (priority 2001, published 2006).
pIC50: −log10 of the molar value.

How the values were obtained:
T-cell activation = T-cell activation cellular assay (MTT); assay type: cell-based; settings: Table 4, 40 hr incubation
Experimental: (§1) Cellular assays were performed as follows:
(§2) Cell suspensions were prepared by harvesting cells from culture. Cell used in this test should be in later log phase growth and high viability. Cells were diluted in correct growth medium to 1.1× final concentration (from 50000 cell/ml to 200,000 cell/ml, depending on cell line). 90 μL was added to samples, diluted in PBS to 10× final concentration in flat-bottom 96-well plates (10 μL). After incubation for 40 hr in 37° C. 5% CO2 incubator, MTT 5 mg/ml (in PBS, filter sterile) 20 μl per well was added. The plates were returned to incubator for another 6 hours. Lysis Buffer (10% SDS, 0.01N HCl) 100 μl per well was added and the plate put back in incubator overnight. The plate was then read at 590 nm.

Jurkat = Jurkat cellular growth assay (MTT); assay type: cell-based; settings: Table 4, inhibit 50% of cellular growth, 40 hr incubation
Experimental: as §1, §2

TSU = TSU cellular growth assay (MTT); assay type: cell-based; settings: Table 4, inhibit 50% of cellular growth, 40 hr incubation
Experimental: as §1, §2

JAK1 = biological target: T1, JAK1 (Homo sapiens, UniProt P23458); assay: JAK1 kinase domain capture-based ELISA kinase assay; assay type: biochemical; settings: inhibit 50% of activity at 50 μM
T1 construct: The kinase domain of humanJAK1 was amplified from U937mRNA; His tag (from pFastBac HTb vector; nickel chelate purification) (N); made in house; host or cells: baculovirus; virus made in Sf9, large-scale expression in High Five insect cells
T1 sequence (P23458 875-1153 limits assumed): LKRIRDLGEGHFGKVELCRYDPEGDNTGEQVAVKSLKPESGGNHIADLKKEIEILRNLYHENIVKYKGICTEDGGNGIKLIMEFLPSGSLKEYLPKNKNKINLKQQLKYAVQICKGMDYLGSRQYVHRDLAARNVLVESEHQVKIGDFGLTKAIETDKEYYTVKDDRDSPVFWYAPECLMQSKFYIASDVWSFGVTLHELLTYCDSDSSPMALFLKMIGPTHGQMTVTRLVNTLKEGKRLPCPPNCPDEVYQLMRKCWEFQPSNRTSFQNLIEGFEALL
Procedure, shortened: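 His-tagged human JAK1 kinase domain was expressed via baculovirus in High Five insect cells and purified on nickel chelate resin. Phosphotyrosine was quantified by ELISA with peroxidase-linked PY20 after capture on avidin plates.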

JAK2 = biological target: T2, JAK2 (Homo sapiens, UniProt O60674); assay: JAK2 kinase domain capture-based ELISA kinase assay; assay type: biochemical; settings: inhibit 50% of activity at 50 μM
T2 construct: The kinase domain of humanJAK2 was amplified from U937mRNA; His tag (from pFastBac HTc vector; nickel chelate purification) (N); made in house; host or cells: baculovirus; virus made in Sf9, large-scale expression in High Five insect cells
T2 sequence (O60674 849-1124 limits assumed): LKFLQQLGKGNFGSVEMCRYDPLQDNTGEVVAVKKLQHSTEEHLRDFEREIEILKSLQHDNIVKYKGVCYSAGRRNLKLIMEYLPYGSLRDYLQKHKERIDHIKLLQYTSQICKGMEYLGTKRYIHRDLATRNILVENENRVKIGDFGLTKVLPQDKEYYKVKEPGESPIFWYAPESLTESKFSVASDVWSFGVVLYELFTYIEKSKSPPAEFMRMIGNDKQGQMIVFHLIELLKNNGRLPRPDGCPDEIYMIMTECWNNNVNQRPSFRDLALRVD
Procedure, shortened: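 His-tagged human JAK2 kinase domain was baculovirus-expressed in High Five insect cells and nickel-purified. Phosphotyrosine was captured on avidin plates and detected by ELISA with peroxidase-linked PY20.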

JAK3 = biological target: T3, JAK3 (Homo sapiens, UniProt P52333); assay: JAK3 kinase domain capture-based ELISA kinase assay; assay type: biochemical; settings: inhibit 50% of activity at 50 μM
T3 construct: The kinase domain of humanJAK3 was amplified from U937mRNA; His tag (from pFastBac HTb vector; nickel chelate purification) (N); made in house; host or cells: baculovirus; virus made in Sf9, large-scale expression in High Five insect cells
T3 sequence (P52333 822-1111 limits assumed): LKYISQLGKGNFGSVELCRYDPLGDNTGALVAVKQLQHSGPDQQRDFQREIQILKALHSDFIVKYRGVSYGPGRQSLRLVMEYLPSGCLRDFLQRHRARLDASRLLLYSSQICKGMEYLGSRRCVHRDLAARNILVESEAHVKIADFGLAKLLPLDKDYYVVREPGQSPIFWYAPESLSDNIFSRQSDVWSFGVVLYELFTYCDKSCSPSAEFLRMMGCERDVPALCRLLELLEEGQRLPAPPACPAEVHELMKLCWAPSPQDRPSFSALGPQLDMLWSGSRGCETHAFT
Procedure, shortened: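 The human JAK3 kinase domain was His-tagged, baculovirus-expressed in High Five cells and nickel-affinity purified. Tyrosine phosphorylation was quantified on avidin-coated ELISA plates with peroxidase-linked anti-phosphotyrosine antibody PY20.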

TYK2 = biological target: T4, TYK2 (Homo sapiens, UniProt P29597); assay: TYK2 kinase domain capture-based ELISA kinase assay; assay type: biochemical; settings: inhibit 50% of activity at 50 μM
T4 construct: The kinase domain of humanTYK2 was amplified from A549 mRNA; His tag (from pBlueBacHis2A vector; nickel chelate purification) (N); made in house; host or cells: baculovirus; virus made in Sf9, large-scale expression in High Five insect cells
T4 sequence (P29597 897-1176 limits assumed): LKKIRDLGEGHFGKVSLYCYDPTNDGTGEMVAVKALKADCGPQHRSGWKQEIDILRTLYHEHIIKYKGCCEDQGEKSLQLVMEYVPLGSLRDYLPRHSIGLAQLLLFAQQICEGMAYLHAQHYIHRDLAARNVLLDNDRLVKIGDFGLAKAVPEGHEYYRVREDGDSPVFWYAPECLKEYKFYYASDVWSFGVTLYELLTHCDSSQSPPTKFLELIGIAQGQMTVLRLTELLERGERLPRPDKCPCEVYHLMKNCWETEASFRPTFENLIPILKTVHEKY
Procedure, shortened: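 His-tagged human TYK2 kinase domain expressed in baculovirus-infected insect cells and Ni-affinity purified. Biotinylated peptide substrate (5 μM final); phosphotyrosine captured on avidin plate and detected by peroxidase-linked PY20 antibody ELISA.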

## COc1cncc(-c2cncc(NCc3ccc(F)cc3)n2)c1 [drawing 53]
T-cell activation; T-cell, 40 h
  pIC50: 4.52
Jurkat; Homo sapiens, Jurkat, 40 h
  pIC50: 4.30
TSU
  pIC50: 4.30

## COc1cncc(-c2cncc(N[C@@H](C)c3ccccc3)n2)c1 [drawing 54]
T-cell activation; T-cell, 40 h
  pIC50: 4.82
Jurkat; Homo sapiens, Jurkat, 40 h
  pIC50: 4.30
TSU
  pIC50: 4.70

## COc1cc(-c2cncc(N[C@@H](C)c3ccccc3)n2)cc(OC)c1OC [drawing 55]
T-cell activation
  pIC50: 5.00
Jurkat
  pIC50: 4.70
TSU
  pIC50: 5.00

## COc1cc(-c2cncc(NCc3ccccc3)n2)cc(OC)c1OC [drawing 56]
T-cell activation; T-cell, 40 h
  pIC50: 4.82
Jurkat; Homo sapiens, Jurkat, 40 h
  pIC50: 4.70
TSU
  pIC50: 5.00

## COc1cc(-c2cncc(N[C@@H](C)c3ccccc3)n2)cc(OC)c1OC [drawing 57]
T-cell activation; T-cell, 40 h
  pIC50: 4.92
Jurkat; Homo sapiens, Jurkat, 40 h
  pIC50: 4.46
TSU
  pIC50: 5.00

## C[C@H](Nc1cncc(-c2cccc(CO)c2)n1)c1ccccc1 [drawing 58]
T-cell activation; T-cell, 40 h
  pIC50: 4.70
Jurkat; Homo sapiens, Jurkat, 40 h
  pIC50: 4.70
TSU
  pIC50: 4.82

## COc1cncc(-c2cncc(NCC(C)(C)CO)n2)c1 [drawing 59]
T-cell activation; T-cell, 40 h
  pIC50: 4.82
Jurkat; Homo sapiens, Jurkat, 40 h
  pIC50: 4.40
TSU
  pIC50: 4.40

## CC(=O)Nc1cccc(-c2cncc(NCc3cccc(Cl)c3)n2)c1 [drawing 60]
T-cell activation; T-cell, 40 h
  pIC50: 4.52
Jurkat; Homo sapiens, Jurkat, 40 h
  pIC50: 4.40
TSU
  pIC50: 5.30

## Oc1ccc(-c2cn3ccnc3c(N3CCOCC3)n2)cc1 [drawing 75]
JAK1; Table 5
  pIC50: > 4.30
JAK2; Table 5
  pIC50: > 4.30
JAK3; Table 5
  pIC50: > 4.30
TYK2; Table 5
  pIC50: > 4.30

## Brc1cn2ccnc2c(Nc2ccc(N3CCOCC3)cc2)n1 [drawing 82]
JAK1; Table 5
  pIC50: > 4.30
JAK2; Table 5
  pIC50: > 4.30
JAK3; Table 5
  pIC50: > 4.30
TYK2; Table 5
  pIC50: > 4.30

## CCN(CCO)c1ccc(Nc2nc(Br)cn3ccnc23)cc1 [drawing 83]
JAK1; Table 5
  pIC50: > 4.30
JAK2; Table 5
  pIC50: > 4.30
JAK3; Table 5
  pIC50: > 4.30
TYK2; Table 5
  pIC50: > 4.30

## COCCNc1nc(-c2ccccc2)cn2ccnc12 [drawing 85]
JAK1; Table 5
  pIC50: > 4.30
JAK2; Table 5
  pIC50: > 4.30
JAK3; Table 5
  pIC50: > 4.30
TYK2; Table 5
  pIC50: > 4.30

## Nc1cccc(-c2cn3ccnc3c(Nc3ccccc3)n2)c1 [drawing 87]
JAK1; Table 6
  pIC50: > 4.30
JAK2; Table 6
  pIC50: > 4.30
JAK3; Table 6
  pIC50: < 4.30
TYK2; Table 6
  pIC50: > 4.30

## Oc1ccc(-c2cn3ccnc3c(N3CCOCC3)n2)cc1 [drawing 90]
JAK1; Table 6
  pIC50: < 4.30
JAK2; Table 6
  pIC50: > 4.30
JAK3; Table 6
  pIC50: < 4.30
TYK2; Table 6
  pIC50: < 4.30

## COCCNc1nc(-c2ccccc2)cn2ccnc12 [drawing 93]
JAK1; Table 6
  pIC50: > 4.30
JAK2; Table 6
  pIC50: > 4.30
JAK3; Table 6
  pIC50: < 4.30
TYK2; Table 6
  pIC50: < 4.30

## CCN(CCO)c1ccc(Nc2nc(-c3cccc4ccccc34)cn3ccnc23)cc1 [drawing 94]
JAK1; Table 6
  pIC50: > 4.30
JAK2; Table 6
  pIC50: > 4.30
JAK3; Table 6
  pIC50: < 4.30
TYK2; Table 6
  pIC50: < 4.30

## CCN(CCO)c1ccc(Nc2nc(-c3ccccc3CO)cn3ccnc23)cc1 [drawing 96]
JAK1; Table 6
  pIC50: > 4.30
JAK2; Table 6
  pIC50: > 4.30
JAK3; Table 6
  pIC50: < 4.30
TYK2; Table 6
  pIC50: > 4.30

## Brc1cn2ccnc2c(Nc2ccc(N3CCOCC3)cc2)n1 [drawing 100]
JAK1; Table 6
  pIC50: > 4.30
JAK2; Table 6
  pIC50: > 4.30
JAK3; Table 6
  pIC50: < 4.30
TYK2; Table 6
  pIC50: > 4.30

## CCN(CCO)c1ccc(Nc2nc(Br)cn3ccnc23)cc1 [drawing 101]
JAK1; Table 6
  pIC50: > 4.30
JAK2; Table 6
  pIC50: > 4.30
JAK3; Table 6
  pIC50: < 4.30
TYK2; Table 6
  pIC50: > 4.30

## c1cc(-c2cn3ccnc3c(Nc3ccc(N4CCOCC4)cc3)n2)ccn1 [drawing 120]
JAK1; Table 6
  pIC50: > 4.30
JAK2; Table 6
  pIC50: > 4.30
JAK3; Table 6
  pIC50: < 4.30
TYK2; Table 6
  pIC50: > 4.30

## c1cncc(-c2cn3ccnc3c(Nc3ccc(N4CCOCC4)cc3)n2)c1 [drawing 131]
JAK1; Table 6
  pIC50: > 4.30
JAK2; Table 6
  pIC50: > 4.30
JAK3; Table 6
  pIC50: < 4.30
TYK2; Table 6
  pIC50: > 4.30

## OCc1ccccc1-c1cn2ccnc2c(Nc2ccc(N3CCOCC3)cc2)n1 [drawing 142]
JAK1; Table 6
  pIC50: > 4.30
JAK2; Table 6
  pIC50: > 4.30
JAK3; Table 6
  pIC50: < 4.30
TYK2; Table 6
  pIC50: < 4.30
